In US8163805B2, “Small molecule antagonists of Bcl-2 family proteins” (The Regents of the University of Michigan, priority 2001, dated 2012):
Values joined by “and” are separate entries in the source; they are usually repeats but may differ in a detail not shown here. Equal values may be shown once. Read-outs that look alike come from different tables or passages of the source.

What was measured:
[1] = test system: androgen-independent prostate PC-3 xenograft; experiment: PC-3 xenograft, (−)-gossypol and radiation (Example 20); assay type: in vivo, nude mice
Procedure: In this experiment, 60 male 5 to 6 week old NCI athymic NCr-nu/nu nude mice were inoculated in each flank with an injection of about 5×10^6 PC-3 cells. The best 40 xenograft recipients were used. Tumors averaged about 70 mm^3. (−)-Gossypol compounds were first dissolved in ethanol and diluted with sterile water within 5 min to a final ethanol concentration of 10% prior to each administration. Irradiated test animals were restrained, placed under the X-ray head, and covered with lead shields to ensure that the tumor area was exposed to radiation. All oral administrations of (−)-gossypol and 10% alcohol were given by gavage.
The 40 best xenograft mice were divided into experimental groups as follows: radiation only (Groups 1 and 2), 2 Gy administered 5 times/week for 3 weeks, and daily oral administration of 10% alcohol (as vehicle control); radiation plus gossypol (Groups 3 and 4), 2 Gy administered 5 times a week for 3 weeks, and 10 mg/kg of (−)-gossypol administered orally 5 times/week for 4 weeks (8 mice each Group); gossypol only (Groups 5 and 6), 10 mg/kg (−)-gossypol administered orally every day for 4 weeks (8 mice each Group); vehicle control (Groups 7 and 8), daily oral administration of 10% alcohol (8 mice each Group as vehicle control); large tumor animals (combination of Groups 9-12), tumors allowed to reach 500 mm^3.
Other remaining tumors in this group appear pale yellowish and soft as compared with that in control group with hard solid and reddish appearance, indicating tumor blood supply was inhibited.

[2] = test system: LnCap prostate cancer cells; experiment: MTT-based 5-day cell proliferation, LnCap; design: species or system human
From the text: The present invention is not limited to any mechanism. Indeed, a mechanistic understanding of the invention is unnecessary to practice (make and use) the present compositions and methods.

[3] = test system: PC-3 human prostate cancer bilateral xenografts; experiment: PC-3 xenograft, (−)-gossypol alone and with cisplatin (Table 11); assay type: in vivo, NCr-nu nude mouse; settings: Table 11
Bcl-XL = target: T1, Bcl-XL (Homo sapiens, UniProt Q07817, DEL45-84); experiment: 15N HSQC NMR binding to Bcl-XL
T1 construct: His-tag (N); made in house

fibroblasts = experiment: 6-day MTT cell survival, mean over fibroblasts; assay type: cell-based, human
Bcl-2 = target: T2, Bcl-2 (Homo sapiens, UniProt P10415); experiment: FP binding assay, Flu-Bad-25 peptide and GST-fusion Bcl-2 (FIG. 4, 45); settings: FIG. 4
T2 construct: purchased Santa Cruz Biotechnology

UM-SCC-17B = experiment: 6-day MTT cell growth, UM-SCC-17B; assay type: cell-based, human; settings: read-out: IC50, inhibition of cell growth
Procedure: (§1) UM-SCC and human fibroblast cell lines were continuously exposed to varying concentrations of (−)-gossypol in 6-day MTT cell survival assays. Control wells contained media (DMEM) with vehicle alone. For each data point n=5.
(§2) Ten squamous cell carcinoma cell lines established at the University of Michigan (UM-SCC) and three human fibroblast lines were grown in Dulbecco's modified Eagle's medium (DMEM) supplemented with 10% fetal bovine serum. UM-SCC cell lines originated from the larynx (n=2; UM-SCC-12, -23), oral cavity/oropharynx (n=5; UM-SCC-1, -6, -14A, -74B, -81B), hypopharynx (n=1; UM-SCC-22A) and metastases from laryngeal cancers (n=2; UM-SCC-17B, -25). Human fibroblast cell lines originated from surgical specimens (fibroblast cell lines 2 and 3) and neonatal foreskin samples (fibroblast cell line 1).
(§3) Logarithmically growing cell lines were cultured, washed, counted, and plated at 5,000-15,000 cells per well in duplicate wells of 96-well plates and incubated in DMEM overnight. […] The MTT assay measures cell survival based on mitochondrial conversion of MTT from a soluble tetrazolium salt into an insoluble colored formazan precipitate, which is dissolved in dimethyl sulfoxide and quantitated by spectrophotometry. […] Percent absorbance relative to control was plotted as a linear function of drug concentration.

UM-SCC-1 = experiment: 6-day MTT cell growth, UM-SCC-1; assay type: cell-based, human; settings: read-out: IC50, inhibition of cell growth
Procedure: as §1, §2, §3

[4] = target: T3, Bcl-XL and pro-apoptotic protein Bim (Homo sapiens, UniProt Q07817); experiment: Immunoprecipitation of Bcl-XL/Bim heterodimerization in HT-29 cells; assay type: cell-based; settings: HT-29, starting at 8 hrs
T3 construct: endogenous in cells; host or cells: HT-29 colon cancer cells
Procedure: In one embodiment HT-29 colon cancer cells, which express only the Bcl-xL protein, were treated with (−)-gossypol at various doses for 4 hrs, 8 hrs, and 12 hrs. To avoid the detergent effects on the dimerization of Bcl-xL proteins in immunoprecipitation experiments, following the treatment of cells with gossypol, immunoprecipitation of cell lysates was carried out in the Chaps buffer with the anti-Bcl-XL antibody. The Bcl-XL bound proteins were then immunoblotted with anti-Bim antibody. […] There is no change in the total Bcl-XL or Bim protein in the same lysates following the (−)-gossypol treatment.

UM-SCC-81B = experiment: 6-day MTT cell growth, UM-SCC-81B; assay type: cell-based, human; settings: read-out: IC50, inhibition of cell growth
Procedure: as §1, §2, §3

[5] = test system: Fib-2 (fibroblast cell line 2); experiment: 6-day MTT cell growth, Fib-2; assay type: cell-based, human; settings: read-out: IC50, inhibition of cell growth
Procedure: as §1, §2, §3

UM-SCC-14A = experiment: Trypan blue exclusion cell death, UM-SCC-14A; assay type: cell-based, human; settings: 10 μM, 48 hour
Procedure: (§4) Cells were seeded in 24 or 96-well-plates and gossypol compounds were prepared at 2-10 fold dilutions in suitable medium. […] Cell viability was then determined by the trypan-blue assays. Inhibition of cell growth was determined by treating cells with gossypol compounds for 3-6 days. Cell inhibition was determined using XTT. In some embodiments, MTT assays are used to determine cell inhibition.

UM-SCC-12 = experiment: Trypan blue exclusion cell death, UM-SCC-12; assay type: cell-based, human; settings: 10 μM, 48 hour
Procedure: as §4

[6] = 8 Gy radiation with 4 μM gossypol
[7] = 8 Gy radiation with 5 μM gossypol
[8] = Table 17 (content identical to Table 18)
[9] = Table 18, PC-3 xenograft, (−)-gossypol 10 mg/kg orally for 4 weeks, radiation 2 Gy 5 times/week

T1 sequence (Q07817 with tags, fused parts or gaps DEL45-84 limits assumed): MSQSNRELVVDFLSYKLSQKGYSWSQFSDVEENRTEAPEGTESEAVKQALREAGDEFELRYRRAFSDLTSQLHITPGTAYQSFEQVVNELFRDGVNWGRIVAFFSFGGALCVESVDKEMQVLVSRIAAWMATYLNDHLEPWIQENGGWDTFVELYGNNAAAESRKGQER
T2 sequence (P10415 1-205 limits assumed): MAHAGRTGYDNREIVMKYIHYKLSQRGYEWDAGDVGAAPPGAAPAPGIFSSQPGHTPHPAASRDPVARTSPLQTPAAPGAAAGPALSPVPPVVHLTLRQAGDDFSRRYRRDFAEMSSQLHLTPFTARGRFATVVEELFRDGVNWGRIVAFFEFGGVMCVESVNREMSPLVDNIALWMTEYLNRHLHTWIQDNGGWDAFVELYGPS
T3 sequence (Q07817 whole entry): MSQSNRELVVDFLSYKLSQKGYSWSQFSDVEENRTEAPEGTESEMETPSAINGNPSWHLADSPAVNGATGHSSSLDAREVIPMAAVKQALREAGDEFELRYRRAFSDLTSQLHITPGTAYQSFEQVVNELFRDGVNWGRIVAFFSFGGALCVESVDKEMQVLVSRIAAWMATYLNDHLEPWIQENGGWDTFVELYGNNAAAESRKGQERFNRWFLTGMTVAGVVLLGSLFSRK

With `Cc1cc2c(C(C)C)c(O)c(O)c(C=O)c2c(O)c1-c1c(C)cc2c(C(C)C)c(O)c(O)c(C=O)c2c1O` [(−)-gossypol] the “tumors with complete regression” value ([1]; (−)-gossypol 10 mg/kg p.o. q.d.×5 4 weeks + X-ray 2 Gy q.d.×5 3 weeks) was “At least 10 out of 16”, the “tumor growth inhibition compared with vehicle control, day 37” value ([1]; Table 15, (−)-gossypol 10 mg/kg p.o. in combination with radiation 2 Gy per day, total 30 Gy) was “achieved 91.5% tumor growth” and the “complete tumor regression, number of tumors” value ([1]; Table 15, combination of (−)-gossypol with radiation, out of 16 tumors) was “regression in 10 out of 16 tumors in”. The “potency in inhibiting cancer cell growth relative to (+)-gossypol” value [2] was 5-10 times, the “potency in inhibiting cancer cell growth relative to racemic gossypol” value [2] was 2 times and the “tumor growth inhibition compared with vehicle control” value ([3]; (−)-gossypol 7.5 mg/kg p.o. in combination with cisplatin 5 mg/kg i.v.) was “cisplatin at 5 mg/kg achieved 65%”. The “weight loss during the treatment” value ([3]; combination regimen of (−)-gossypol 7.5 mg/kg p.o. with cisplatin 5 mg/kg i.v.) was “CDDP alone, and 20-23% weight”, the “binding to Bcl-XL by NMR” value (Bcl-XL) was “bind to the BH3 binding groove in Bcl-XL” and the IC50 (fibroblasts) was 20.3 ± 9.2 µM. The “inhibition of binding between Bid BH3 peptide and Bcl-2” value (Bcl-2) was “directly inhibit binding between Bid BH3 peptide and Bcl-2”, the IC50 (UM-SCC-17B) was 5 µM and the IC50 (UM-SCC-1) was 2000 nM and 1500 nM. The “binding of Bcl-XL and Bim in intact cells” value [4] was “dose-dependent decrease in the binding of Bcl-XL and pro-apoptotic protein Bim”, the IC50 (UM-SCC-81B) was 4 µM and the “Combination Index (CI)” value (PC-3 cells; [6]) was 0.34. For the same molecule, the “Dose Reduction Index (DRI)” value (PC-3 cells; [6]) was 4.3, the “Combination Index (CI)” value (PC-3 cells; [7]) was 0.27 and the “Dose Reduction Index (DRI)” value (PC-3 cells; [7]) was 6.1. For the same molecule, the “reduction in colony formation from controls” value (PC-3 cells; with 6 Gy X-ray) was 10 fold, the “reduction in colony formation from controls” value (PC-3 cells; with 8 Gy X-ray) was 20 fold and the “toxicity by bodyweight measurements” value (PC-3 xenograft; (−)-gossypol 10 mg/kg with or without radiation) was “no significant toxicity”. For the same molecule, the antitumor effect (PC-3 xenograft; (−)-gossypol alone, 10 mg/kg oral, 4 weeks) was “minimal antitumor effect”, the “tumor growth inhibition compared with vehicle control, day 39” value (PC-3 xenograft; Table 14, (−)-gossypol 10 mg/kg p.o. in combination with radiation 2 Gy per day, total 30 Gy) was “achieved 93% tumor growth” and the “tumor growth inhibition, day 39” value (PC-3 xenograft; Table 14, PC-3 flank xenografts (~150 mm^3 at start), (−)-gossypol 10 mg/kg p.o. 5 times q week for 4 weeks, alone, not significant) was “regimen (about 20%, P = 0.3 or 0.7,”. The “Tumor Growth Delay (T − C Days)” value (PC-3 xenograft; [8]) was 0 days, the “Tumor Growth Inhibition (T/C %)” value (PC-3 xenograft; [8]) was 98.6% and the “Tumor Growth Delay (T − C Days)” value (PC-3 xenograft; [9]) was 0 days. For the same molecule, the “Tumor Growth Inhibition (T/C %)” value (PC-3 xenograft; [9]) was 98.6%, the IC50 [5] was 20 µM and the “surviving (trypan blue excluding) fraction relative to untreated controls” value (UM-SCC-14A) was 16%. The “surviving (trypan blue excluding) fraction relative to untreated controls” value (UM-SCC-12) was 14%.
